Results from the supplement of paper PMC12076712.

Legend:
Assay in all cases: pIC50, kinobeads binding competition
Conditions in all cases: cell material: Jurkat lysate
RIOK1 = biological target: T1, RIOK1 (UniProt Q9BRS2)
T1 sequence (whole entry): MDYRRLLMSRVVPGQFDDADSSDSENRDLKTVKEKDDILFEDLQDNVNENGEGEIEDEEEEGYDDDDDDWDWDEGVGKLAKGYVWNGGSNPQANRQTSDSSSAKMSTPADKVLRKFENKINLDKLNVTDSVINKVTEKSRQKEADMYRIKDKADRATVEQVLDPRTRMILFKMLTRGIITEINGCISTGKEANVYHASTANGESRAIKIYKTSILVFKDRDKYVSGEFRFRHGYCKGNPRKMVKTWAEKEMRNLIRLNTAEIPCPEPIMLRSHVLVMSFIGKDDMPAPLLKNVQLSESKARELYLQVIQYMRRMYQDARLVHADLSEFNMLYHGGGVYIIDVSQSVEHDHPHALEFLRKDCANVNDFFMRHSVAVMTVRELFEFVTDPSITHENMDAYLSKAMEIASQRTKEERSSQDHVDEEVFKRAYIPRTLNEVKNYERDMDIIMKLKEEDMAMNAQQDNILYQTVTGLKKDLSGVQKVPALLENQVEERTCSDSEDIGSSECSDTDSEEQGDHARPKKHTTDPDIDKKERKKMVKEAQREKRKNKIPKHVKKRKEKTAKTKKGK

ILK = biological target: T2, ILK (UniProt Q13418)
T2 sequence (whole entry): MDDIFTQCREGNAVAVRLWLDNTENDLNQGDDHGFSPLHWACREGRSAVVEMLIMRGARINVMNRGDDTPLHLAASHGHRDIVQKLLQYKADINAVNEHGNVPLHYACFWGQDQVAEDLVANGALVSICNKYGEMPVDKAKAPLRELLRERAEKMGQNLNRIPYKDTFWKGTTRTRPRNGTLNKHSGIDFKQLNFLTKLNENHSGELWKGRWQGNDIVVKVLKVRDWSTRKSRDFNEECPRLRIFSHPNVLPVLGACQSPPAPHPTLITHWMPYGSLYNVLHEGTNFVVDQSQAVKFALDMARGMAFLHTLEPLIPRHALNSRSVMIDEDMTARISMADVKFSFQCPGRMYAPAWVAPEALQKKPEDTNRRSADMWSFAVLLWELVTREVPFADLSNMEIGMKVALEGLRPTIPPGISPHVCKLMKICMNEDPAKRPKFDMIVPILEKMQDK

SRC = SRC (UniProt P12931)
Chain of SRC (P12931 whole entry, looked up): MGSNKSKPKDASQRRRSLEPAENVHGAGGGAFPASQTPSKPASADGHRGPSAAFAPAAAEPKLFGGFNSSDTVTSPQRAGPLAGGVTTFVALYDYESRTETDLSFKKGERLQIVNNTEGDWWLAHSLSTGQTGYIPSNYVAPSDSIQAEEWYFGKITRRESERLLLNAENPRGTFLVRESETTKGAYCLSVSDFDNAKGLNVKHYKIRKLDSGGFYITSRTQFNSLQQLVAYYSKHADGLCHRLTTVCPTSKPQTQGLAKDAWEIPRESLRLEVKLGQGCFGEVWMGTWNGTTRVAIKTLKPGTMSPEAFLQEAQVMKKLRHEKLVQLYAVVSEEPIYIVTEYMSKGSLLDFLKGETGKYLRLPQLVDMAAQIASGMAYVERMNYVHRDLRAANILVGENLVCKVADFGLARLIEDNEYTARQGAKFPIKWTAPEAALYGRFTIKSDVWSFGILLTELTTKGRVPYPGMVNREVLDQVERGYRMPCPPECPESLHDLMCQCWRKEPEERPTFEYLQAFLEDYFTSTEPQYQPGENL

UniProt Q13043 = biological target: T3, UniProt Q13043
T3 sequence (whole entry): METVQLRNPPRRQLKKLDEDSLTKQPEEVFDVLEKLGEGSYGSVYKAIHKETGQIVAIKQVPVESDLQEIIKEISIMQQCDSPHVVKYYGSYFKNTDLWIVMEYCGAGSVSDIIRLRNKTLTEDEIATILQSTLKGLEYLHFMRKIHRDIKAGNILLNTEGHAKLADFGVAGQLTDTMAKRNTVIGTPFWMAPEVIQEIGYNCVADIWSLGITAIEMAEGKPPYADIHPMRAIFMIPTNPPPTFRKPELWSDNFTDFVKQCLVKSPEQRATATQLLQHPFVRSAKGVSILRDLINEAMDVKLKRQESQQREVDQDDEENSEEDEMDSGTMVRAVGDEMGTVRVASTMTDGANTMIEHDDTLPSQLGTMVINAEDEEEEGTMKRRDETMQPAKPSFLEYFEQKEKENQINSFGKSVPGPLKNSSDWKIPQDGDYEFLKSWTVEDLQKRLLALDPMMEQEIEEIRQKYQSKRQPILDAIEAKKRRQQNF

EPHB2 = biological target: T4, EPHB2 (UniProt P29323)
T4 sequence (whole entry): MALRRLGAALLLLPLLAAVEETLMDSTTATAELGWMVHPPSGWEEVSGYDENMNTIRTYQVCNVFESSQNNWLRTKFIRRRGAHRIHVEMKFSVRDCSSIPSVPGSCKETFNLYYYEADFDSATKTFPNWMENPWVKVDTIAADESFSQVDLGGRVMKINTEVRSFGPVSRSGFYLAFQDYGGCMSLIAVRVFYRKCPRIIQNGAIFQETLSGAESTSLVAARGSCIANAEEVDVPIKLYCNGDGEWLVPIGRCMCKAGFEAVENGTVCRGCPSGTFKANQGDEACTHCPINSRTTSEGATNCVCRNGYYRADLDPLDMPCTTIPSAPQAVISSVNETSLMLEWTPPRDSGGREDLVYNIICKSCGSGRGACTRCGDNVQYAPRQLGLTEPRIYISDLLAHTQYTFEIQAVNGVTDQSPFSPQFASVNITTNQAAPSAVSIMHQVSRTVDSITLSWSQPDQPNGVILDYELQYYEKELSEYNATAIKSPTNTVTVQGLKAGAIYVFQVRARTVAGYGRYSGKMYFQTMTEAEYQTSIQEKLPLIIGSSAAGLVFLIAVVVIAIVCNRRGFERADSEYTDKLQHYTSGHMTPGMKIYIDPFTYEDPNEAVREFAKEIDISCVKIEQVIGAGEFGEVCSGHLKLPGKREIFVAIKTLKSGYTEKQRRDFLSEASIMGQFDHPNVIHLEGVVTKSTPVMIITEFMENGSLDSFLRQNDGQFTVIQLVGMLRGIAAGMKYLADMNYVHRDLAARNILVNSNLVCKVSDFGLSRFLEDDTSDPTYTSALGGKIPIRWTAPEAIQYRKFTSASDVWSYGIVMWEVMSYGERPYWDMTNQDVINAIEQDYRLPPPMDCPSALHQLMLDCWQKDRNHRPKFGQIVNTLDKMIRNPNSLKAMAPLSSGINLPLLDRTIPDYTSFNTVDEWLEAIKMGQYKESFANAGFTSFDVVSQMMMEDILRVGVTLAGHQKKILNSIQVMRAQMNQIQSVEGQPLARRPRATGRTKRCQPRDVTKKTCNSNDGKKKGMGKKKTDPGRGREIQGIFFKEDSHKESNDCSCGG

UniProt Q9P289 = biological target: UniProt Q9P289
Chain of UniProt Q9P289 (Q9P289 whole entry, looked up): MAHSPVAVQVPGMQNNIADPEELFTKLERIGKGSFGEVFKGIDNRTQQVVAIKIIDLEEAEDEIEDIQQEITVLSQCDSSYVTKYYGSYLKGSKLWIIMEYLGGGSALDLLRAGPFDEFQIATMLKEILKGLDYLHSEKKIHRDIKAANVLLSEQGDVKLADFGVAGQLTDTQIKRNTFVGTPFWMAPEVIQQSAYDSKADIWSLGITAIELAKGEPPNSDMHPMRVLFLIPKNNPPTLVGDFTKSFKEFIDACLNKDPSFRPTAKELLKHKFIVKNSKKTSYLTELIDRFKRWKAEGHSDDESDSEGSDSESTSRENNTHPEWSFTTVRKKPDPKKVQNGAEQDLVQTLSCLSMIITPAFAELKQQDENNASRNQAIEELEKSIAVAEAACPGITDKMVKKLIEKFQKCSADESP

pIC50 (RIOK1): < 4.52 | pIC50 (ILK): < 4.52 | pIC50 (SRC): < 4.52 | pIC50 (UniProt Q13043): < 4.52 | pIC50 (EPHB2): < 4.52 | pIC50 (UniProt Q9P289): < 4.52
Compound: CCc1cnn2c(NCc3ccc[n+]([O-])c3)cc(N3CCCC[C@H]3CCO)nc12 [dinaciclib]
